Data from article PMC9127750, “Structure-based design of CDC42 effector interaction inhibitors for the treatment of cancer” (Cell reports, 2022).

Tested on: WM3248 melanoma cells, 486 antibodies
Test: Reverse phase protein arrays (RPPA);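 as to RPPA ACC1.R.C: ratio of treated to vehicle (0 µM) normalized linear protein signal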;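 as to RPPA AMPK.a2 pS345.R.V: ratio of treated to vehicle (0 µM) normalized linear protein signal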;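 as to RPPA AMPKa pT172.R.C: ratio of treated to vehicle (0 µM) normalized linear protein signal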;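 as to RPPA ASNS.R.V: ratio of treated to vehicle (0 µM) normalized linear protein signal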;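 as to RPPA Akt1.R.V: ratio of treated to vehicle (0 µM) normalized linear protein signal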;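 as to RPPA Atg5.R.C: ratio of treated to vehicle (0 µM) normalized linear protein signal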;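 as to RPPA Bim.R.V: ratio of treated to vehicle (0 µM) normalized linear protein signal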
Type: cell-based, Human
Details: 20 uM
Text: Pellets were snap frozen in liquid nitrogen and shipped to MD Anderson Cancer Center core RPPA facility for RPPA analysis (Table S5). Three biological replicates for each sample were generated.
Nomenclatures on the RPPA heatmaps: name_of_antibody.species_of_antibody.status_of_antibody. V - antibody validated; C - validation of antibody in progress; Q - antibody nonspecific; E – under evaluation; antibodies raised in M - mouse, G - goat, R - rabbit, or T - rat.

CN(C)c1cccc(Nc2cc(-c3ccccc3)nc(C3CCNCC3)n2)c1 [ARN22089, N1,N1-dimethyl-N3-(6-phenyl-2-(piperidin-4-yl)pyrimidin-4-yl)benzene-1,3-diamine]
RPPA level HSP70.R.C (Average): 1.160 | RPPA level Hexokinase.I.R.C (Average): 1.048 | RPPA level Hexokinase.II.R.V (Average): 0.963 | RPPA level Hif.1αR.C (Average): 0.904 | RPPA level Histone.H3.R.V (Average): 5.173 | RPPA level Histone.H3_pS10.R.V (Average): 2.026 | RPPA level IDO.R.C (Average): 1.014 | RPPA level IGF1R_pY1135_Y1136.R.V (Average): 0.992 | RPPA level IGFBP2.R.V (Average): 0.899 | RPPA level IGFBP3.M.V (Average): 0.907 | RPPA level IGFRb.R.C (Average): 1.146 | RPPA level IL.6.R.C (Average): 1.008 | RPPA level IMP3.R.C (Average): 1.016 | RPPA level INPP4b.R.C (Average): 0.905 | RPPA level IR.b.R.C (Average): 1.149 | RPPA level IRF.1.R.V (Average): 0.954 | RPPA level IRF.3.R.V (Average): 0.948 | RPPA level IRS1.R.V (Average): 1.105 | RPPA level IRS2.R.C (Average): 1.211 | RPPA level JAB1.M.C (Average): 0.972 | RPPA level JNK2.R.V (Average): 0.925 | RPPA level Jagged1.R.V (Average): 1.085 | RPPA level KAP1.R.V (Average): 1.034 | RPPA level KEAP1.R.V (Average): 0.960 | RPPA level LAD1.R.V (Average): 1.019 | RPPA level LC3A.B.R.C (Average): 1.119 | RPPA level LCN2.R.V (Average): 1.461 | RPPA level LDHA.R.C (Average): 0.979 | RPPA level Lck.R.V (Average): 1.187 | RPPA level Lyn.R.V (Average): 1.058 | RPPA level MACC1.R.V (Average): 1.008 | RPPA level MAPK_pT202_Y204.R.C (Average): 0.677 | RPPA level MCT4.R.V (Average): 0.896 | RPPA level MDM2_pS166.R.V (Average): 1.230 | RPPA level MEK1.R.V (Average): 2.341 | RPPA level MEK2.R.V (Average): 1.026 | RPPA level MERIT40.R.C (Average): 0.895 | RPPA level MERIT40_pS29.R.V (Average): 0.991 | RPPA level METTL3.R.V (Average): 1.155 | RPPA level MIF.R.C (Average): 0.950 | RPPA level MIG6.R.V (Average): 0.989 | RPPA level MITF.R.V (Average): 1.031 | RPPA level MLH1.M.V (Average): 0.887 | RPPA level MLKL.R.V (Average): 0.867 | RPPA level MMP2.R.V (Average): 0.982 | RPPA level MMP14.R.V (Average): 1.321 | RPPA level MR1.M.C (Average): 1.026 | RPPA level MRAP.R.C (Average): 1.126 | RPPA level MSH2.R.C (Average): 0.913 | RPPA level MSH6.R.C (Average): 1.164 | RPPA level MSI2.R.C (Average): 1.099 | RPPA level MTCO1.M.V (Average): 1.031 | RPPA level MTSS1.M.C (Average): 0.981 | RPPA level Mcl.1.R.V (Average): 0.838 | RPPA level Melanoma.gp100.R.C (Average): 1.007 | RPPA level Merlin.R.C (Average): 1.156 | RPPA level Midkine.R.V (Average): 0.970 | RPPA level Mitofusin.1.R.V (Average): 0.952 | RPPA level Mitofusin.2.R.V (Average): 0.892 | RPPA level Mnk1.R.V (Average): 0.957 | RPPA level mTOR.R.V (Average): 0.941 | RPPA level mTOR_pS2448.R.C (Average): 0.914 | c.Jun_pS73.R.V RPPA level (Average): 0.970 | c.Kit.R.V RPPA level (Average): 1.141 | c.Met_pY1234_Y1235.R.V RPPA level (Average): 1.064 | cGAS.R.V RPPA level (Average): 1.063 | cdc2_pY15.R.C RPPA level (Average): 1.101 | cdc25C.R.V RPPA level (Average): 0.883 | RPPA ACC1.R.C (D.1): 0.904 | RPPA ACC_pS79.R.V (D.1): 1.061 | RPPA ACLY_pS455.R.V (D.1): 0.944 | RPPA ACSL1.R.V (D.1): 1.054 | RPPA ACVRL1.R.C (D.1): 1.049 | RPPA ADAR1.M.V (D.1): 1.103 | RPPA ALKBH5.R.V (D.1): 1.309 | RPPA AMPK.a2_pS345.R.V (D.1): 0.933 | RPPA AMPKa.R.C (D.1): 1.010 | RPPA AMPKa_pT172.R.C (D.1): 1.099 | RPPA ARID1A.R.C (D.1): 2.023 | RPPA ASNS.R.V (D.1): 0.909 | RPPA ATM.R.V (D.1): 0.752 | RPPA ATP5A.M.C (D.1): 1.056 | RPPA ATP5H.R.V (D.1): 1.455 | RPPA ATR.R.V (D.1): 1.004 | RPPA ATRX.R.C (D.1): 0.831 | RPPA AceCS1.R.V (D.1): 1.063 | RPPA Akt1.R.V (D.1): 0.712 | RPPA Akt1_pS473.R.V (D.1): 0.750 | RPPA Akt2.R.V (D.1): 0.746 | RPPA Akt2_pS474.R.C (D.1): 0.847 | RPPA Akt.R.V (D.1): 0.884 | RPPA Akt_pS473.R.V (D.1): 0.449 | RPPA Ambra1_pS52.R.C (D.1): 1.082 | RPPA Annexin.I.M.V (D.1): 0.994 | RPPA Annexin.VII.M.V (D.1): 1.057 | RPPA Atg4B.R.C (D.1): 0.789 | RPPA Atg5.R.C (D.1): 1.025 | RPPA Atg7.R.V (D.1): 0.657 | RPPA Aurora.A.R.C (D.1): 1.945 | RPPA Aurora.ABC_pT288_pT232_pT198.R.C (D.1): 0.842 | RPPA Aurora.B.R.V (D.1): 1.775 | RPPA Axl.R.V (D.1): 0.594 | RPPA B7.H3.R.C (D.1): 0.996 | RPPA B7.H4.R.C (D.1): 0.838 | RPPA B.Raf.R.C (D.1): 0.786 | RPPA B.Raf_pS445.R.V (D.1): 0.752 | RPPA BAP1.M.V (D.1): 1.051 | RPPA BCL2A1.R.V (D.1): 0.907 | RPPA BMK1.Erk5_pT218_Y220.R.V (D.1): 1.016 | RPPA BRCA1.M.C (D.1): 1.165 | RPPA BRD4.R.V (D.1): 1.680 | RPPA Bad_pS112.R.V (D.1): 0.993 | RPPA Bak.R.C (D.1): 1.006 | RPPA Bcl2.R.C (D.1): 1.280 | RPPA Bcl.xL.R.V (D.1): 0.996 | RPPA Beclin.R.C (D.1): 1.111 | RPPA BiP.GRP78.M.C (D.1): 1.051 | RPPA Bid.R.C (D.1): 1.015 | RPPA Bim.R.V (D.1): 1.098 | RPPA X4E.BP1.R.V (D.1): 0.866 | RPPA X4E.BP1_pS65.R.V (D.1): 0.834 | RPPA X4E.BP1_pT37_T46.R.V (D.1): 0.918 | RPPA X14.3.3.zeta.R.V (D.1): 1.017 | RPPA X14.3.3βR.V (D.1): 1.192 | RPPA X53BP1.R.V (D.1): 1.055 | RPPA b.Actin.R.C (D.1): 1.239 | RPPA b.Catenin.R.V (D.1): 1.006 | RPPA b.Catenin_pT41_S45.R.V (D.1): 1.014 | RPPA c.Abl.R.V (D.1): 0.991 | RPPA c.Abl_pY412.R.C (D.1): 0.922 | RPPA c.IAP2.R.C (D.1): 1.019 | RPPA PREX1.R.V Average (average of 3): 0.950 | RPPA PTEN.R.V Average (average of 3): 1.082 | RPPA PTPN12.R.V Average (average of 3): 1.211 | RPPA PYGB.R.V Average (average of 3): 1.080 | RPPA PYGM.M.C Average (average of 3): 0.983 | RPPA Puma.R.C Average (average of 3): 1.011 | RPPA RBM15.R.V Average (average of 3): 0.995 | RPPA RIP3.R.C Average (average of 3): 0.996 | RPPA RIP.R.C Average (average of 3): 1.022 | RPPA RPA32.R.V Average (average of 3): 1.078 | RPPA RPA32_pS4_S8.R.C Average (average of 3): 1.531 | RPPA RRM1.R.C Average (average of 3): 0.946 | RPPA RRM2.R.C Average (average of 3): 0.922 | RPPA RSK1.R.V Average (average of 3): 0.941 | RPPA RSK.R.C Average (average of 3): 0.973 | RPPA Rab11.R.C Average (average of 3): 1.059 | RPPA Rad23A.R.C Average (average of 3): 0.946 | RPPA Rad50.R.V Average (average of 3): 1.053 | RPPA Rad51.R.C Average (average of 3): 0.940 | RPPA Raptor.R.V Average (average of 3): 0.967 | RPPA Rb.M.Q Average (average of 3): 0.977 | RPPA Rb_pS807_S811.R.V Average (average of 3): 0.907 | RPPA Rheb.M.C Average (average of 3): 1.147 | RPPA Rictor.R.C Average (average of 3): 1.017 | RPPA Rictor_pT1135.R.V Average (average of 3): 1.076 | RPPA S6.M.V Average (average of 3): 0.982 | RPPA S6_pS235_S236.R.V Average (average of 3): 0.339 | RPPA S6_pS240_S244.R.V Average (average of 3): 0.423 | RPPA SCD.M.V Average (average of 3): 0.961 | RPPA SDHA.R.V Average (average of 3): 1.098 | RPPA SF2.R.V Average (average of 3): 1.008 | RPPA SFRP1.R.V Average (average of 3): 0.986
